One assay addresses T1, PLEKHA7 PH-domain (Homo sapiens, UniProt Q6IQ23).
T1 construct: The plekstrin homology domain of CNK and PLEKHA7 expressed with GST at the N-terminus; made in house
T1 sequence (Q6IQ23 164-282 limits assumed): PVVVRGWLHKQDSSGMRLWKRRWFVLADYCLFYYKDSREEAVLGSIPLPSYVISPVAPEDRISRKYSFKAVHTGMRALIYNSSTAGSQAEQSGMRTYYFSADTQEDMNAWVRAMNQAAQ
Put plainly: Surface plasmon resonance binding to PLEKHA7 PH-domain. The following applies: SPR; read-out: PLEK KD. As for the experimental part:
The plekstrin homology domain of CNK and PLEKHA7 expressed with GST at the N-terminus, CNK(PH)-GST were immobilized on a CM5 chip. Analysis of potential small molecule drug binding was done using a Biacore T200. Immobilization of antibody was run at 37° C. and a flow rate of 5 μL/min. A freshly prepared mixture of aqueous 0.4M 1-ethyl-3-(3-dimethylaminopropyl)carbodiimide hydrochloride (EDC) and aqueous 0.1M N-hydroxysuccinamide (NETS), (0.2M/0.05M EDC/NHS solution) is injected for 480 seconds over a conditioned (Tanious, et al doi:10.1016/50091-679X(07)84003-9) CM5 chip flow cell. The activated surface is then injected at 37° C., flow rate of 5 μL/min for 480 sec with 30 μg/mL anti-GST antibody, freshly suspended in pH 5.0 10 mM acetate buffer. Expected capture is 12000-20000 response units (RU). The remaining active surface is deactivated with 480 sec injections of 0.1M ethylenediamine in borate buffer (GE Healthcare) and then 1M ethanolamine pH 8.5 to provide 10000-18000 RU of covalently linked antibody on the flow cell. An upstream reference flow cell (Fc1) and a downstream working flow cell (Fc2) are prepared in this manner. […] Binding responses were determined 4 seconds prior to the conclusion of the injection. […]
Background: SPR reads the build-up and loss of mass on a sensor chip optically.

For the next assay, the target named is T2, PH-domain of CNKSR1 (Homo sapiens, UniProt Q969H4).
T2 construct: The PH-domain His-fusion proteins (CNK1 and AKT1) were expressed and immobilized on a NTA chip; made in house
T2 sequence (Q969H4 403-502 limits assumed): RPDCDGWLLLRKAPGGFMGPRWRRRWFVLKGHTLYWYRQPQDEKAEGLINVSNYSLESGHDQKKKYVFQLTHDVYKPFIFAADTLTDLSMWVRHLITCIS
As to the kind of experiment: Surface plasmon resonance binding to CNK PH-domain. As to conditions: Summary table for CNKSR1 inhibitors; read-out: SPR Kd. From the text: The PH-domain His-fusion proteins (CNK1 and AKT1) were expressed and immobilized on a NTA chip to a level of 10,000 response units or less.
Additionally, ligand-based approaches provided an alternative to structure based drug discovery.

A further assay deals with wt-KRAS cells. Put plainly: Proliferation assay, wt-KRAS cell lines. Type of assay: cell-based. As to conditions: average over wt-KRAS lines; read-out: Ave IC50 wt-KRAS. As for the experimental part:
(§1) These cells were cultured in McCoys media with 10% FBS to 80% confluency. […] Cells were incubated for 72 hours with the drugs, and then viability was assessed using an MTS viability assay. Cells were exposed to MTS reagent (Promega) dissolved in PBS (Hyclone) at a concentration of 200 μL reagent/mL media for 2 hours. Absorbance was then read at 490 nm, and viability was expressed as a percentage normalized between the negative control (no cells plated) and the condition of cells with no drug added (100% viability) normalized as the upper limit of viability. A panel of 30 cell lines and an extensive characterization were obtained from Dr. John Minna (UTSW). All cell lines were cultured in RPMI 1640 with 10% FBS. […] IC50's were determined using Excelfit.

Assay [1] relates to mut-KRas NSCLC lines. As to the kind of experiment: Proliferation assay 2D, mut-KRas NSCLC lines. In kind it is cell-based. As for the experimental part:
A panel of 30 cell lines and an extensive characterization were obtained from Dr. John Minna (UTSW). All cell lines were cultured in RPMI 1640 with 10% FBS. Cells were treated with concentrations of agents at concentrations 0.01 to 50 μM and evaluated as described above. IC50's were determined using Excelfit.

Assay [2] deals with mut-KRas NSCLC lines. Put plainly: Proliferation assay 3D, mut-KRas NSCLC lines. Type of assay: cell-based. As for the experimental part:
The plates were optimized for the best cell density and found to be 20,000 cells per mL. The lid was removed from a 96-well Greiner plate and turned upside down. 20 μL of the 20,000 cells per mL suspension was then added directly into the middle of the circles found on the lid of the 96-well plate forming a small drop. 100 μL of media was added into the corresponding wells, used to maintain the […] of the drops, and the lid was flipped back over carefully placing it back onto the plate without disturbing the drop. The plate was then placed into the incubator for 3 days to allow the cells to migrate to the bottom of the drop due to gravity. After 3 days, […] of media was added to the corresponding wells a SCIVAX 96-well plate. The lid from the Greiner 96-well plate was removed and placed onto the SCIVAX plate allowing the drop to come in contact with the media and placed back into the incubator. After one hour, 200 μL of media was removed from the corresponding wells carefully without disturbing the spheroid and imaged.

Another assay has as its target T3, CNK1 (Homo sapiens, UniProt Q969H4).
T3 construct: The PH-domain His-fusion proteins (CNK1 and AKT1) were expressed and immobilized on a NTA chip; made in house
T3 sequence (Q969H4 403-502 limits assumed): T2 sequence (Q969H4 403-502 limits assumed)
As to the kind of experiment: SPR competition, CNK1 binding to PIP3. As to conditions: read-out: SPR Competition Percent inhibition of CNK1 binding to PIP3 at 50 μM, X = none.

The next assay has as its system mut-KRAS cells. Put plainly: Proliferation assay, mut-KRAS cell lines. As to conditions: average over mut-KRAS lines; read-out: Ave IC50 mut-KRAS. Type of assay: cell-based. As for the experimental part: as §1

The record followed here is patent US10227356B2, “Compounds, compositions and methods for inhibiting CNKSR1” (Phusis Therapeutics, Inc., priority 2015, dated 2019).

As a reminder, the Kd is the concentration at which binding is half-saturated. The term IC50 denotes the point on the concentration scale where inhibition reaches its midpoint. A word on the inhibition: it is the percentage by which the read-out fell short of the control.

As for `CCOC(=O)/C=C/c1cc(NS(=O)(=O)c2cccs2)c2c(c1O)OCO2` [Compound 88, (E)-ethyl 3-(4-hydroxy-7-(thiophene-2-sulfonamido)benzo[d][1,3]dioxol-5-yl)acrylate], the Kd at PLEKHA7 PH-domain worked out at 261 µM.
`COc1c(/C=C/C(=O)NC2CC2)c(NS(=O)(=O)c2cccs2)cc2c1OCO2` [Compound 110]: the Kd at PH-domain of CNKSR1 is less than 50 µM. The IC50 in the assay with wt-KRAS cells was 35.7 µM; in the assay on mut-KRas NSCLC lines [1] (range across mut-Kras cell lines, read-out: In vitro IC50 against mut-KRas NSCLC 2D range), 4.3 to 100 µM; in the assay on mut-KRas NSCLC lines [2] (range across mut-Kras cell lines, read-out: In vitro IC50 against mut-KRas NSCLC 3D range), 0.23 to 75 µM; in the assay with mut-KRAS cells it was 1.2 µM. Further, the “In vitro IC50 against mut-KRas NSCLC 2D ave” value with mut-KRas NSCLC lines [1] (mean of 12 mut-KRas NSCLC lines) stood at 15.7 µM. The “In vitro IC50 against mut-KRas NSCLC 3D ave” value with mut-KRas NSCLC lines [2] (mean of 6 mut-KRas NSCLC lines) came to 1.2 µM. Moreover, the inhibition at 50 µM on CNK1 was found to be 0%.
